Experimental data: patent US20230227547A1, “ANTIBODY-PAYLOAD CONJUGATES WITH ENHANCED DELIVERY DOMAIN AND USES THEREOF” (IPROGEN BIOTECH INC., priority 2019, published 2023)

Legend:
[1] = system: T47D cells; test: Anti-HER2 mAb delivery efficiency using LL37-derived peptide constructs; assay type: cell-based, human; conditions: for Delivery efficiency: peptide conjugated to anti-HER2 mAb light chain, 100 nM Ab, Z-GFP (PEP#6, 35-43) or Goat anti-human IgG-AlexaFluor 488 (PEP#6, 47-94) fluorescence microscopy; for delivery enhancement (in words): peptide conjugated to anti-HER2 mAb
Method: LL37 and LL37-derived peptides were produced synthetically with two additional N-terminal glycine residues (e.g. as shown in SEQ ID NO:2 compared to SEQ ID NO: 1) to enable the sortase reaction. The LL37-derived peptides (PEP#35 to #43, SEQ ID NOs: 13-21) were all dissolved at 10 mg/ml in phosphate buffer saline (PBS) at room temperature, sterile-filtered, and stored at -20° C. freezer. PEP#48 (SEQ ID: 74), PEP#49 (SEQ ID No: 75), and PEP#60 (SEQ ID NO: 105) were dissolved in 20% (v/v) acetonitrile in PBS. PEP#47 (SEQ ID NO: 96), PEP#86 (SEQ ID NO: 78), PEP#98 (SEQ ID NO: 79), PEP#99 (SEQ ID NO: 80), PEP#102 (SEQ ID NO: 82), and PEP#104 (SEQ ID NO: 84) were dissolved in DMSO. PEP#50 (SEQ ID No: 76), PEP#51 (SEQ ID No: 97), PEP#55 (SEQ ID No: 77), PEP#58 (SEQ ID No: 103), PEP#59 (SEQ ID No: 104), PEP#61 (SEQ ID No: 106), PEP#62 (SEQ ID No: 107), PEP#63 (SEQ ID No: 108), PEP#64 (SEQ ID No: 109), PEP#66 (SEQ ID No: 110), and PEP#94 (SEQ ID No: 35) were all dissolved in PBS. […] The reaction was incubated inside a 37° C. incubator for 16 hours, and then EDTA (pH 7.5) was added to 10 mM in the reaction mixture to chelate calcium and stop the reaction.
Delivery assay: The following delivery assay method was used on the anti-HER2 mAbs conjugated to the PEP#6, #35, #36, #37, #38, #39, #40, #41, #42, and #43 described in Table 7. […] The plates were then removed from the incubator, and the culturing media was removed from the adherent cells. The adherent cells were washed gently with an equal volume of ice-cold PBS. Then, the PBS wash was replaced 250 µl of fresh PBS for fluorescence microscope imaging.
At the end of incubation, the adherent target cells were washed twice with ice-cold PBS, fixed with 2% (w/v) formaldehyde in PBS at room temperature for 15 minutes, and washed twice with PBS at room temperature. The fixed adherent target cells were then permeabilized with 0.05% (v/v) Tween-20 in PBS at room temperature for 15 minutes. The permeabilized cells were then incubated with 5% (v/v) FBS, 0.05% (v/v) Tween-20 in PBS at 37 degree Celsius incubator for 30 minutes. The secondary antibody, Goat anti-human IgG-AlexaFluor 488, was added to 5 ug/ml in 5% (v/v) FBS, 0.05% (v/v) Tween-20 in PBS, and incubated with the treated target cells at 37 degree Celsius incubator for 30 minutes. After incubation, the labelled cells were washed twice with PBS, and stored in storage buffer [5% (v/v) FBS in PBS] at 4 degree Celsius until fluorescence microscope imaging. The delivery of mAb and mAb-LL37-derived peptides were determined qualitatively by estimating the green fluorescence intensity emitted from the AlexFluor488-labelled secondary antibody bound to mAb or mAb-LL37-derived peptides.

[2] = system: T47D cells; test: Cell viability assay with XTT, T47D; assay type: cell-based, human; conditions: XTT (Taxol ADCs: 3 hours)
Method: The cell assay was done by treating/incubating the T47D cells with antibody drug conjugates for 3 hours in the 37 degree C tissue culture incubator. After treatment, cell viability was determined by XTT assay as described above.
After treatment, cell viability was determined by XTT assay as described above.

[3] = system: LnCap; test: Delivery assay, Goat anti-human IgG-AlexaFluor 488 fluorescence microscopy, LnCap; assay type: cell-based; parameters: key to Delivery efficiency of mAb (i.e., mAb): +++: Strong Alexa Fluor 488 (cyan/green) fluorescent intensity; ++: Medium level of Alexa Fluor 488 (cyan/green) fluorescent intensity; +: Weak, but noticeable Alexa Fluor 488 (cyan/green) fluorescent intensity; -: No signal; conditions: Target cell LnCap
Method: (§1) Delivery assay. […] The culturing media containing the unbound antibodies were removed, and the MDA-MB-468 cells were washed with PBS. The adherent cells were treated with trypsin at 37 degree C for 1-2 minutes, neutralized in FACS buffer (2% v/v FBS, 2 mM EDTA, 0.05% w/v sodium azide in PBS), and transferred to FACS tubes on ice. The delivery of antibodies to cells was quantitated by measuring the red fluorescence intensity (i.e., PE-Texas Red color channel in the FACS detector) emitted fromZ-RFP bound to antibody. […] At the end of incubation, the adherent target cells were washed twice with ice-cold PBS, fixed with 2% (w/v) formaldehyde in PBS at room temperature for 15 minutes, and washed twice with PBS at room temperature. The fixed adherent target cells were then permeabilized with 0.05% (v/v) Tween-20 in PBS at room temperature for 15 minutes. The permeabilized cells were then incubated with 5% (v/v) FBS, 0.05% (v/v) Tween-20 in PBS at 37 degree Celsius incubator for 30 minutes. The secondary antibody, Goat anti-human IgG-AlexaFluor 488, was added to 5 ug/ml in 5% (v/v) FBS, 0.05% (v/v) Tween-20 in PBS, and incubated with the treated target cells at 37 degree Celsius incubator for 30 minutes. After incubation, the labelled cells were washed twice with PBS, and stored in storage buffer [5% (v/v) FBS in PBS] at 4 degree Celsius until fluorescence microscope imaging. The delivery of mAb and mAb-LL37 were determined qualitatively by estimating the green fluorescence intensity emitted from the AlexFluor488-labelled secondary antibody bound to mAb or mAb-LL37. […] However, Ramos [NT] No. ATCC CRL-1596, lot#70016960) was grown in suspension culture (i.e., in contrast to adherent cells), and the modification to the methods involves simply harvesting cells from the shaking culture flask for incubation with antibodies (or LL37-linked antibodies), and frequently pelleting down the target cells in the V-bottom 96-well polypropylene plate for downstream processes of PBS washing, fixing, permeabilizing, blocking, and the secondary antibody labelling. The secondary anti-human IgG-AlexaFluor488 labelled target cells were washed and resuspended in PBS, and transferred to the clear polystyrene 48-well plates for fluorescence microscope imaging.

[4] = system: RT4v6; test: Delivery assay, Goat anti-human IgG-AlexaFluor 488 fluorescence microscopy, RT4v6; assay type: cell-based; parameters: key to Delivery efficiency of mAb (i.e., mAb): +++: Strong Alexa Fluor 488 (cyan/green) fluorescent intensity; ++: Medium level of Alexa Fluor 488 (cyan/green) fluorescent intensity; +: Weak, but noticeable Alexa Fluor 488 (cyan/green) fluorescent intensity; -: No signal; conditions: Target cell RT4v6; for Delivery enhancement: mAb-LL37 vs mAb
Method: as §1, with “No. ATCC CRL-1596, lot#70016960) was grown in suspension culture (i.e., in contrast to adherent cells), and the modification to the methods involves simply harvesting cells from the shaking culture flask for incubation with antibodies (or LL37-linked antibodies), and frequently pelleting down the target cells in the V-bottom 96-well polypropylene plate for downstream processes of PBS washing, fixing, permeabilizing, blocking, and the secondary antibody labelling.” left out

[5] = system: OVCAR3; test: Delivery assay, Goat anti-human IgG-AlexaFluor 488 fluorescence microscopy, OVCAR3; assay type: cell-based; parameters: key to Delivery efficiency of mAb (i.e., mAb): +++: Strong Alexa Fluor 488 (cyan/green) fluorescent intensity; ++: Medium level of Alexa Fluor 488 (cyan/green) fluorescent intensity; +: Weak, but noticeable Alexa Fluor 488 (cyan/green) fluorescent intensity; -: No signal; conditions: Target cell OVCAR3; for Delivery enhancement: mAb-LL37 vs mAb
Method: as §1, with “No. ATCC CRL-1596, lot#70016960) was grown in suspension culture (i.e., in contrast to adherent cells), and the modification to the methods involves simply harvesting cells from the shaking culture flask for incubation with antibodies (or LL37-linked antibodies), and frequently pelleting down the target cells in the V-bottom 96-well polypropylene plate for downstream processes of PBS washing, fixing, permeabilizing, blocking, and the secondary antibody labelling.” left out

With EKIGKEFKRIVQRIKDFLRN [PEP#63] the Delivery efficiency [1] was “+”.

IGKEFKRIVQRI [PEP#40] was tested, and the Delivery efficiency [1] was “+”.

With “LLGDFFRASKEKIGKEFAAIVQAIKDFLANLVPATES [PEP#50]” the “delivery enhancement (in words)” value [1] was “decrease in, but not abrogation of, delivery enhancement” and the Delivery efficiency [1] was “+”.

For “LLGDFFRQSKEKIGKEFQQIVQQIKDFLQNLVPQTES [PEP#49]”, the “delivery enhancement (in words)” value [1] was “abolished the antibody delivery enhancement”.

For IVQRIKDFLRNLVPRTES [PEP#38], the Delivery efficiency [1] was “++ (Solid enhancement in delivery, but at lower efficiency than LL37)” and the “killing of T47D / cell viability (in words)” value [2] was “enhanced the anti-HER2 mAb-MMAE drug conjugate to kill T47D cells”.

For Citatuzumab [Anti-EpCAM, Citatuzumab], the “Delivery efficiency of mAb (i.e., mAb)” value ([3]; 100 nM, 3 hours) was “++” and the Delivery enhancement ([3]; mAb-LL37 vs mAb) was “YES”.

With Vofatamab [Anti-FGFR3, Vofatamab] the “Delivery efficiency of mAb (i.e., mAb)” value ([4]; 100 nM, 3 hours) was “+” and the Delivery enhancement [4] was “YES”.

With GSIGKEFKRIVQRIKDFLR [PEP#66] the Delivery efficiency [1] was “++ (Solid enhancement in delivery, but at lower efficiency than LL37)”.

With MMWLL [PEP#47, reference compound] the “delivery enhancement (in words)” value [1] was “confirmed to not enhance antibody delivery to target cells alone”.

“FRKSKEKIGKFFKRIVQRIFDFLRNLVMMWLL [PEP#48]” was tested, and the Delivery efficiency [1] was “+++ (Same as LL37)”.

In the case of “Lifastuzumab [Anti-NaPi2b, Lifastuzumab]”, the “Delivery efficiency of mAb (i.e., mAb)” value ([5]; 100 nM, 3 hours) is reported as “+”, the Delivery enhancement [5] is reported as “YES” and the Delivery enhancement ([5]; listed as lifastuzumab) is reported as “significantly increases the delivery”. The Delivery enhancement [4] was “significantly increases the delivery”.
